{
  "source": "patent US20250195536A1",
  "about": "“BICYCLOOCTANE KRAS INHIBITORS” (Incyte Corporation, priority 2023, published 2025);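 on G12D exchange (KRAS G12D exchange assay IC50): one dagger IC50 up to 100 nM and two daggers above 100 nM up to 1 μM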",
  "key": {"[1]": {"biological_target": "KRAS G12V (Homo sapiens, UniProt P01116, G12V)", "sequence (P01116 1-188 isoform P01116-2 G12V)": "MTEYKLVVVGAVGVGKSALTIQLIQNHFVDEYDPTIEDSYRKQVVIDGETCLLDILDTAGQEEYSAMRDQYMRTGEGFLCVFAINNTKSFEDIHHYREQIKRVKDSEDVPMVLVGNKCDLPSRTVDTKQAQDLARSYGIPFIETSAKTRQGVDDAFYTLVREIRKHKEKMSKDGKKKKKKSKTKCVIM", "assay": "GDP-GTP exchange assay (KRAS G12V);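 further: one dagger IC50 up to 100 nM and two daggers above 100 nM up to 1 μM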", "format": "biochemical", "settings": "bodipy-GDP/GppNHp exchange with SOS1; 3 h incubation after GppNHp-SOS1", "procedure,_shortened": "(§1)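 IC50 came from a four-parameter fit of fluorescence loss (485/520 nm) as SOS1 (150 nM) swapped bodipy-GDP for GppNHp (500 μM) on 2.5 nM KRAS, final concentrations. Compounds were pre-incubated 4 h at r.t. (pH 7.5 Hepes, 10 mM MgCl2); exchange ran 2 h (G12D) or 3 h (G12V).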"}, "[2]": {"assay": "Caco2 assay (permeability, Papp A-B)", "format": "in vitro ADME", "settings": "human, Caco-2, absorptive direction (A-B), 50 μM test compound, 4% BSA in receiver", "procedure,_shortened": "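Absorptive (A-B) Papp: 50 μM test compound in HBSS added to apical side of 22-25-day Caco-2 monolayers (TEER 300 Ω·cm^2), receiver buffer containing 4% BSA. After 120 min at 37 °C, 5% CO2, both sides analysed by LCMS; Papp calculated from flux rate normalized to area and donor amount.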"}, "[3]": {"biological_target": "KRAS G12D (Homo sapiens, UniProt P01116, G12D)", "sequence (P01116 1-188 isoform P01116-2 G12D)": "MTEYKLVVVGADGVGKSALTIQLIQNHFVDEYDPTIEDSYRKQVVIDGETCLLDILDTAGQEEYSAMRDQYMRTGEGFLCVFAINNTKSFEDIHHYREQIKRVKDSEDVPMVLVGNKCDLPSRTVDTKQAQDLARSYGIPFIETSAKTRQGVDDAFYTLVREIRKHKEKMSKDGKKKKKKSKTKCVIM", "assay": "GDP-GTP exchange assay (KRAS G12D)", "format": "biochemical", "settings": "bodipy-GDP/GppNHp exchange with SOS1; 4 h pre-incubation, 2 h reaction", "procedure,_shortened": "as §1"}},
  "data": [
    {"smiles": "Cc1nc2c(F)c(-c3cccc(Cl)c3Cl)c(CCC#N)cc2c2c1cc([C@H]1[C@H]3C[C@H](CN(c4cccc(OC(F)F)c4)C3)N1C(=O)C1CC1)n2[C@H]1[C@H]2CN[C@@H]1C2", "note": "(atropisomer, axis not shown; (Ra)) [Example 26, 3-((Ra)-1-((1R,4R,5S)-2-azabicyclo[2.1.1]hexan-5-yl)-2-((1S,5R,7R)-6-(cyclopropanecarbonyl)-3-(3-(difluoromethoxy)phenyl)-3,6-diazabicyclo[3.2.1]octan-7-yl)-7-(2,3-dichlorophenyl)-6-fluoro-4-methyl-1H-pyrrolo[3,2-c]quinolin-8-yl)propanenitrile]", "values": [
      {"measurement": "G12V_exchange (KRAS_G12V exchange assay IC50)", "setting": "[1]", "result": "†"},
      {"measurement": "Papp A→B at 120 min, 50 μM", "setting": "[2]", "result": "≤ 0.5", "unit": "×10⁻⁶ cm/s"},
      {"measurement": "G12D_exchange (KRAS_G12D exchange assay IC50)", "setting": "[3]", "result": "††"}
    ]},
    {"smiles": "Cc1nc2c(F)c(-c3cccc(Cl)c3Cl)c(CCC#N)cc2c2c1cc([C@H]1[C@@H]3COC[C@@H](C3)N1C(=O)C1CC1)n2[C@H]1[C@H]2CN[C@@H]1C2", "note": "(atropisomer, axis not shown; (Ra)) [Example 115, 3-((Ra)-1-((1R,4R,5S)-2-Azabicyclo[2.1.1]hexan-5-yl)-2-((1R,5R,7R)-6-(cyclopropanecarbonyl)-3-oxa-6-azabicyclo[3.2.1]octan-7-yl)-7-(2,3-dichlorophenyl)-6-fluoro-4-methyl-1H-pyrrolo[3,2-c]quinolin-8-yl)propanenitrile]", "values": [
      {"measurement": "G12V_exchange (KRAS_G12V exchange assay IC50)", "setting": "[1]", "result": "†"},
      {"measurement": "Papp A→B at 120 min, 50 μM", "setting": "[2]", "result": "≤ 0.5", "unit": "×10⁻⁶ cm/s"},
      {"measurement": "G12D_exchange (KRAS_G12D exchange assay IC50)", "setting": "[3]", "result": "†"}
    ]},
    {"smiles": "Cc1nc2c(F)c(-c3cccc(Cl)c3Cl)c(CCC#N)cc2c2c1cc([C@H]1[C@H]3C[C@H](CN(c4ccc(C#N)cc4)C3)N1C(=O)C1CC1)n2[C@H]1[C@H]2CN[C@@H]1C2", "note": "(atropisomer, axis not shown; (Ra)) [Example 4, 4-((1S,5R,7R)-7-((Ra)-1-((1R,4R,5S)-2-azabicyclo[2.1.1]hexan-5-yl)-8-(2-cyanoethyl)-7-(2,3-dichlorophenyl)-6-fluoro-4-methyl-1H-pyrrolo[3,2-c]quinolin-2-yl)-6-(cyclopropanecarbonyl)-3,6-diazabicyclo[3.2.1]octan-3-yl)benzonitrile]", "values": [
      {"measurement": "G12V_exchange (KRAS_G12V exchange assay IC50)", "setting": "[1]", "result": "†"},
      {"measurement": "Papp A→B at 120 min, 50 μM", "setting": "[2]", "result": "≤ 0.5", "unit": "×10⁻⁶ cm/s"},
      {"measurement": "G12D_exchange (KRAS_G12D exchange assay IC50)", "setting": "[3]", "result": "†"}
    ]},
    {"smiles": "Cc1nc2c(F)c(-c3cccc(Cl)c3Cl)c(CCC#N)cc2c2c1cc([C@H]1[C@H]3C[C@H](CN(c4ccnc(C(F)F)c4)C3)N1C(=O)C1CC1)n2[C@H]1[C@H]2CN[C@@H]1C2", "note": "(atropisomer, axis not shown; (Ra)) [Example 60, 3-((Ra)-1-((1R,4R,5S)-2-azabicyclo[2.1.1]hexan-5-yl)-2-((1S,5R,7R)-6-(cyclopropanecarbonyl)-3-(2-(difluoromethyl)pyridin-4-yl)-3,6-diazabicyclo[3.2.1]octan-7-yl)-7-(2,3-dichlorophenyl)-6-fluoro-4-methyl-1H-pyrrolo[3,2-c]quinolin-8-yl)propanenitrile]", "values": [
      {"measurement": "G12V_exchange (KRAS_G12V exchange assay IC50)", "setting": "[1]", "result": "†"},
      {"measurement": "Papp A→B at 120 min, 50 μM", "setting": "[2]", "result": "≤ 0.5", "unit": "×10⁻⁶ cm/s"},
      {"measurement": "G12D_exchange (KRAS_G12D exchange assay IC50)", "setting": "[3]", "result": "†"}
    ]},
    {"smiles": "Cc1nc2c(F)c(-c3cccc(Cl)c3Cl)c(CCC#N)cc2c2c1cc([C@H]1[C@H]3C[C@H](CN(c4ccc(Cl)c(Cl)c4)C3)N1C(=O)C1CC1)n2[C@H]1[C@H]2CN[C@@H]1C2", "note": "(atropisomer, axis not shown; (Ra)) [Example 15, 3-((Ra)-1-((1R,4R,5S)-2-azabicyclo[2.1.1]hexan-5-yl)-2-((1S,5R,7R)-6-(cyclopropanecarbonyl)-3-(3,4-dichlorophenyl)-3,6-diazabicyclo[3.2.1]octan-7-yl)-7-(2,3-dichlorophenyl)-6-fluoro-4-methyl-1H-pyrrolo[3,2-c]quinolin-8-yl)propanenitrile]", "values": [
      {"measurement": "G12V_exchange (KRAS_G12V exchange assay IC50)", "setting": "[1]", "result": "††††"},
      {"measurement": "Papp A→B at 120 min, 50 μM", "setting": "[2]", "result": "≤ 0.5", "unit": "×10⁻⁶ cm/s"},
      {"measurement": "G12D_exchange (KRAS_G12D exchange assay IC50)", "setting": "[3]", "result": "†††"}
    ]},
    {"smiles": "Cc1nc2c(F)c(-c3cccc(Cl)c3Cl)c(CCC#N)cc2c2c1cc([C@H]1[C@H]3C[C@H](CN(c4ccn(C(F)F)c(=O)c4)C3)N1C(=O)C1CC1)n2[C@H]1[C@H]2CN[C@@H]1C2", "note": "(atropisomer, axis not shown; (Ra)) [Example 56, 3-((Ra)-1-((1R,4R,5S)-2-azabicyclo[2.1.1]hexan-5-yl)-2-((1S,5R,7R)-6-(cyclopropanecarbonyl)-3-(1-(difluoromethyl)-2-oxo-1,2-dihydropyridin-4-yl)-3,6-diazabicyclo[3.2.1]octan-7-yl)-7-(2,3-dichlorophenyl)-6-fluoro-4-methyl-1H-pyrrolo[3,2-c]quinolin-8-yl)propanenitrile]", "values": [
      {"measurement": "G12V_exchange (KRAS_G12V exchange assay IC50)", "setting": "[1]", "result": "†"},
      {"measurement": "Papp A→B at 120 min, 50 μM", "setting": "[2]", "result": "≤ 0.5", "unit": "×10⁻⁶ cm/s"},
      {"measurement": "G12D_exchange (KRAS_G12D exchange assay IC50)", "setting": "[3]", "result": "†"}
    ]},
    {"smiles": "Cc1nc2c(F)c(-c3cccc(Cl)c3Cl)c(CCC#N)cc2c2c1cc([C@H]1[C@H]3C[C@H](CN(c4ccoc(=O)c4)C3)N1C(=O)C1CC1)n2[C@H]1[C@H]2CN[C@@H]1C2", "note": "(atropisomer, axis not shown; (Ra)) [Example 73, 3-((Ra)-1-((1R,4R,5S)-2-azabicyclo[2.1.1]hexan-5-yl)-2-((1S,5R,7R)-6-(cyclopropanecarbonyl)-3-(2-oxo-2H-pyran-4-yl)-3,6-diazabicyclo[3.2.1]octan-7-yl)-7-(2,3-dichlorophenyl)-6-fluoro-4-methyl-1H-pyrrolo[3,2-c]quinolin-8-yl)propanenitrile]", "values": [
      {"measurement": "G12V_exchange (KRAS_G12V exchange assay IC50)", "setting": "[1]", "result": "†"},
      {"measurement": "Papp A→B at 120 min, 50 μM", "setting": "[2]", "result": "≤ 0.5", "unit": "×10⁻⁶ cm/s"},
      {"measurement": "G12D_exchange (KRAS_G12D exchange assay IC50)", "setting": "[3]", "result": "†"}
    ]},
    {"smiles": "Cc1nc2c(F)c(-c3cccc(Cl)c3Cl)c(CCC#N)cc2c2c1cc([C@H]1[C@H]3C[C@H](CN(c4nccc(C(F)F)c4F)C3)N1C(=O)C1CC1)n2[C@H]1[C@H]2CN[C@@H]1C2", "note": "(atropisomer, axis not shown; (Ra)) [Example 54, 3-((Ra)-1-((1R,4R,5S)-2-azabicyclo[2.1.1]hexan-5-yl)-2-((1S,5R,7R)-6-(cyclopropanecarbonyl)-3-(4-(difluoromethyl)-3-fluoropyridin-2-yl)-3,6-diazabicyclo[3.2.1]octan-7-yl)-7-(2,3-dichlorophenyl)-6-fluoro-4-methyl-1H-pyrrolo[3,2-c]quinolin-8-yl)propanenitrile]", "values": [
      {"measurement": "G12V_exchange (KRAS_G12V exchange assay IC50)", "setting": "[1]", "result": "†"},
      {"measurement": "Papp A→B at 120 min, 50 μM", "setting": "[2]", "result": "≤ 0.5", "unit": "×10⁻⁶ cm/s"},
      {"measurement": "G12D_exchange (KRAS_G12D exchange assay IC50)", "setting": "[3]", "result": "†"}
    ]},
    {"smiles": "Cc1ccnc(N2C[C@@H]3C[C@H](C2)N(C(=O)C2CC2)[C@H]3c2cc3c(C)nc4c(F)c(-c5cccc(Cl)c5Cl)c(CCC#N)cc4c3n2[C@H]2[C@H]3CN[C@@H]2C3)c1F", "note": "(atropisomer, axis not shown; (Ra)) [Example 51, 3-((Ra)-1-((1R,4R,5S)-2-azabicyclo[2.1.1]hexan-5-yl)-2-((1S,5R,7R)-6-(cyclopropanecarbonyl)-3-(3-fluoro-4-methylpyridin-2-yl)-3,6-diazabicyclo[3.2.1]octan-7-yl)-7-(2,3-dichlorophenyl)-6-fluoro-4-methyl-1H-pyrrolo[3,2-c]quinolin-8-yl)propanenitrile]", "values": [
      {"measurement": "G12V_exchange (KRAS_G12V exchange assay IC50)", "setting": "[1]", "result": "†"},
      {"measurement": "Papp A→B at 120 min, 50 μM", "setting": "[2]", "result": "0.5 to 1", "unit": "×10⁻⁶ cm/s"},
      {"measurement": "G12D_exchange (KRAS_G12D exchange assay IC50)", "setting": "[3]", "result": "†"}
    ]},
    {"smiles": "COCCOc1cc(N2C[C@@H]3C[C@H](C2)N(C(=O)C2CC2)[C@H]3c2cc3c(C)nc4c(F)c(-c5cccc(Cl)c5Cl)c(CCC#N)cc4c3n2[C@H]2[C@H]3CN[C@@H]2C3)ccn1", "note": "(atropisomer, axis not shown; (Ra)) [Example 83, 3-((Ra)-1-((1R,4R,5S)-2-azabicyclo[2.1.1]hexan-5-yl)-2-((1S,5R,7R)-6-(cyclopropanecarbonyl)-3-(2-(2-methoxyethoxy)pyridin-4-yl)-3,6-diazabicyclo[3.2.1]octan-7-yl)-7-(2,3-dichlorophenyl)-6-fluoro-4-methyl-1H-pyrrolo[3,2-c]quinolin-8-yl)propanenitrile]", "values": [
      {"measurement": "G12V_exchange (KRAS_G12V exchange assay IC50)", "setting": "[1]", "result": "†"},
      {"measurement": "Papp A→B at 120 min, 50 μM", "setting": "[2]", "result": "≤ 0.5", "unit": "×10⁻⁶ cm/s"},
      {"measurement": "G12D_exchange (KRAS_G12D exchange assay IC50)", "setting": "[3]", "result": "†"}
    ]},
    {"smiles": "Cc1nc2c(F)c(-c3cccc(Cl)c3Cl)c(CCC#N)cc2c2c1cc([C@H]1[C@H]3C[C@H](CN(c4ccc(C(F)F)nc4)C3)N1C(=O)C1CC1)n2[C@H]1[C@H]2CN[C@@H]1C2", "note": "(atropisomer, axis not shown; (Ra)) [Example 22, 3-((Ra)-1-((1R,4R,5S)-2-azabicyclo[2.1.1]hexan-5-yl)-2-((1S,5R,7R)-6-(cyclopropanecarbonyl)-3-(6-(difluoromethyl)pyridin-3-yl)-3,6-diazabicyclo[3.2.1]octan-7-yl)-7-(2,3-dichlorophenyl)-6-fluoro-4-methyl-1H-pyrrolo[3,2-c]quinolin-8-yl)propanenitrile]", "values": [
      {"measurement": "G12V_exchange (KRAS_G12V exchange assay IC50)", "setting": "[1]", "result": "†"},
      {"measurement": "Papp A→B at 120 min, 50 μM", "setting": "[2]", "result": "≤ 0.5", "unit": "×10⁻⁶ cm/s"},
      {"measurement": "G12D_exchange (KRAS_G12D exchange assay IC50)", "setting": "[3]", "result": "†"}
    ]},
    {"smiles": "Cc1csc(N2C[C@@H]3C[C@H](C2)N(C(=O)C2CC2)[C@H]3c2cc3c(C)nc4c(F)c(-c5cccc(Cl)c5Cl)c(CCC#N)cc4c3n2[C@H]2[C@H]3CN[C@@H]2C3)n1", "note": "(atropisomer, axis not shown; (Ra)) [Example 90, 3-((Ra)-1-((1R,4R,5S)-2-azabicyclo[2.1.1]hexan-5-yl)-2-((1S,5R,7R)-6-(cyclopropanecarbonyl)-3-(4-methylthiazol-2-yl)-3,6-diazabicyclo[3.2.1]octan-7-yl)-7-(2,3-dichlorophenyl)-6-fluoro-4-methyl-1H-pyrrolo[3,2-c]quinolin-8-yl)propanenitrile]", "values": [
      {"measurement": "G12V_exchange (KRAS_G12V exchange assay IC50)", "setting": "[1]", "result": "†"},
      {"measurement": "Papp A→B at 120 min, 50 μM", "setting": "[2]", "result": "≤ 0.5", "unit": "×10⁻⁶ cm/s"},
      {"measurement": "G12D_exchange (KRAS_G12D exchange assay IC50)", "setting": "[3]", "result": "†"}
    ]}
  ]
}
